Results reported in ChEMBL document CHEMBL1201862, “PubChem BioAssay data set” (2004).
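The compound was tested at five concentrations on cells cultured in 96-well plates, with a 48-hour exposure period. Here, GI50 denotes the concentration required for 50% inhibition of growth.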 Active and inactive are the calls of the source. Rule as the data show it: active = GI50 up to about 1.1 µM and inactive = higher.

Legend:
Test in all cases: NCI anticancer screen, dose series, 48 h
IGROV-1 = tested on: IGROV-1
UACC-62 = tested on: UACC-62
TK-10 = tested on: TK-10
RXF 393 = tested on: RXF 393
SW-620 = tested on: SW-620
SK-MEL-5 = tested on: SK-MEL-5
HOP-62 = tested on: HOP-62
KM12 = tested on: KM12
MDA-MB-435 = tested on: MDA-MB-435
NCI-H23 = tested on: NCI-H23
Malme-3M = tested on: Malme-3M
786-0 = tested on: 786-0
OVCAR-5 = tested on: OVCAR-5
SF-295 = tested on: SF-295
COLO 205 = tested on: COLO 205
M14 = tested on: M14
SR = tested on: SR
SK-MEL-28 = tested on: SK-MEL-28
SF-268 = tested on: SF-268
HL-60 = tested on: HL-60

Compound | GI50 (IGROV-1) | GI50 (UACC-62) | GI50 (TK-10) | GI50 (RXF 393) | GI50 (SW-620) | GI50 (SK-MEL-5) | GI50 (HOP-62) | GI50 (KM12) | GI50 (MDA-MB-435) | GI50 (NCI-H23) | GI50 (Malme-3M) | GI50 (786-0) | GI50 (OVCAR-5) | GI50 (SF-295) | GI50 (COLO 205) | GI50 (M14) | GI50 (SR) | GI50 (SK-MEL-28) | GI50 (SF-268) | GI50 (HL-60)
COc1ccc(/N=N/c2c(-c3c(OC)cc4occc4c3OC)[nH]c(=O)c(C#N)c2C)cc1 | 76.2 µM (inactive) | > 100 µM (inactive) | > 100 µM (inactive) | > 100 µM (inactive) | > 100 µM (inactive) | > 100 µM (inactive) | > 100 µM (inactive) | > 100 µM (inactive) | > 100 µM (inactive) | > 100 µM (inactive) | 55 µM (inactive) | > 100 µM (inactive) | > 100 µM (inactive) | > 100 µM (inactive) | > 100 µM (inactive) | > 100 µM (inactive) | > 100 µM (inactive) | > 100 µM (inactive) | > 100 µM (inactive) | > 100 µM (inactive)
CC(C)OC(=O)c1ccc(CCC2=CC(=O)C=CC2=O)cc1 | 13.9 µM (inactive) | 14.9 µM (inactive) | 9.73 µM (inactive) | 11.8 µM (inactive) | 4.69 µM (inactive) | 15 µM (inactive) | 20.3 µM (inactive) | 12.2 µM (inactive) | 17.4 µM (inactive) | 13.2 µM (inactive) | 6.92 µM (inactive) | 4.22 µM (inactive) | 18 µM (inactive) | 29.4 µM (inactive) | 8.85 µM (inactive) | 15.2 µM (inactive) | 2.56 µM (inactive) | 13.5 µM (inactive) | 13.7 µM (inactive) | 0.773 µM (active)
N#Cc1nc(CCc2nc(C#N)c(N)o2)oc1N | > 10 µM (inactive) | > 10 µM (inactive) | > 10 µM (inactive) | > 10 µM (inactive) | > 10 µM (inactive) | > 10 µM (inactive) | > 10 µM (inactive) | > 10 µM (inactive) | > 10 µM (inactive) | > 10 µM (inactive) | > 10 µM (inactive) | > 10 µM (inactive) | > 10 µM (inactive) | > 10 µM (inactive) | > 10 µM (inactive) | > 10 µM (inactive) | > 10 µM (inactive) | > 10 µM (inactive) | > 10 µM (inactive) | > 10 µM (inactive)
N#Cc1c(NC(=S)Nc2ccc(Cl)cc2)sc2c1CCN(N1CCc3c(sc(NC(=S)Nc4ccc(Cl)cc4)c3C#N)C1)C2 | 16.1 µM (inactive) | 10.6 µM (inactive) | 41 µM (inactive) | 18.3 µM (inactive) | 30.1 µM (inactive) | 10.5 µM (inactive) | 16 µM (inactive) | 55.2 µM (inactive) | 27.1 µM (inactive) | 33 µM (inactive) | 55.2 µM (inactive) | 21 µM (inactive) | 13.8 µM (inactive) | 16.1 µM (inactive) | 16 µM (inactive) | 11 µM (inactive) | > 100 µM (inactive) | 24 µM (inactive) | 38.9 µM (inactive) | 30.2 µM (inactive)
c1ccc(C2=NN(c3nc4ccccc4s3)C3(CCCCC3)N2)nc1 | 19.7 µM (inactive) | 30.7 µM (inactive) | 21.8 µM (inactive) | 21.9 µM (inactive) | 30.7 µM (inactive) | 20.1 µM (inactive) | 28.9 µM (inactive) | 22 µM (inactive) | 23.4 µM (inactive) | 24.9 µM (inactive) | 11.7 µM (inactive) | 18.3 µM (inactive) | 43.5 µM (inactive) | 27.8 µM (inactive) | 19.3 µM (inactive) | 21.4 µM (inactive) | 1.85 µM (inactive) | 44.3 µM (inactive) | 59.2 µM (inactive) | 25.2 µM (inactive)
COc1ccc(-c2cc(C(O)C3CCCCN3)c3ccccc3n2)cc1 (stereo not given) | 8.45 µM (inactive) | 3.37 µM (inactive) | 10.4 µM (inactive) | 4.58 µM (inactive) | 9.59 µM (inactive) | 6.25 µM (inactive) | 11.7 µM (inactive) | 4.14 µM (inactive) | 3.73 µM (inactive) | 13.4 µM (inactive) | 13.6 µM (inactive) | 8.34 µM (inactive) | 12 µM (inactive) | 14.7 µM (inactive) | 1.89 µM (inactive) | 2.14 µM (inactive) | 0.394 µM (active) | 2.43 µM (inactive) | 11.2 µM (inactive) | 11.1 µM (inactive)
O=C(CNS(=O)(=O)Cc1ccccc1)NNc1ccccc1 | 72.8 µM (inactive) | 1.12 µM (active) | > 100 µM (inactive) | > 100 µM (inactive) | 8.05 µM (inactive) | 80 µM (inactive) | > 100 µM (inactive) | 6.1 µM (inactive) | 6.95 µM (inactive) | > 100 µM (inactive) | > 100 µM (inactive) | > 100 µM (inactive) | > 100 µM (inactive) | 4.02 µM (inactive) | 3.23 µM (inactive) | > 63.7 µM (inactive) | > 100 µM (inactive) | > 100 µM (inactive) | > 100 µM (inactive) | 3.44 µM (inactive)
COC(=O)CN(CC(O)C(NC(C)=O)C(O)C=O)C(=O)OCc1ccccc1 (stereo not given) | > 100 µM (inactive) | > 100 µM (inactive) | > 100 µM (inactive) | > 100 µM (inactive) | > 100 µM (inactive) | > 100 µM (inactive) | > 100 µM (inactive) | > 100 µM (inactive) | > 100 µM (inactive) | > 100 µM (inactive) | > 50.5 µM (inactive) | > 100 µM (inactive) | > 100 µM (inactive) | > 100 µM (inactive) | > 100 µM (inactive) | > 100 µM (inactive) | > 100 µM (inactive) | > 100 µM (inactive) | > 100 µM (inactive) | > 100 µM (inactive)
O=[N+]([O-])c1cccc2nc3ccccc3c(NCCC[N+]3([O-])CCCCC3)c12 | 0.394 µM (active) | 0.272 µM (active) | 3.06 µM (inactive) | 0.647 µM (active) | 0.468 µM (active) | 0.36 µM (active) | 0.927 µM (active) | 0.349 µM (active) | 0.18 µM (active) | 0.232 µM (active) | 0.168 µM (active) | 0.438 µM (active) | 0.498 µM (active) | 3.06 µM (inactive) | 0.143 µM (active) | 1.2 µM (inactive) | 0.0479 µM (active) | 0.502 µM (active) | 0.323 µM (active) | 0.745 µM (active)
Sc1nn2c(COc3cc(Cl)c(OCc4nnc5sc(S)nn45)cc3Cl)nnc2s1 | 41.6 µM (inactive) | 28.6 µM (inactive) | > 100 µM (inactive) | 39.2 µM (inactive) | 30.3 µM (inactive) | 41.2 µM (inactive) | > 100 µM (inactive) | > 100 µM (inactive) | 43.9 µM (inactive) | > 100 µM (inactive) | 40.1 µM (inactive) | 39.5 µM (inactive) | > 100 µM (inactive) | > 100 µM (inactive) | > 100 µM (inactive) | > 100 µM (inactive) | 30.1 µM (inactive) | 31.3 µM (inactive) | 44.6 µM (inactive) | 37.8 µM (inactive)
CC1=C(C(=O)OCCO[N+](=O)[O-])C(c2ccccc2[N+](=O)[O-])C(C(=O)OC(C)C)=C(C)N1 (stereo not given) | 15.6 µM (inactive) | 14.1 µM (inactive) | 21.8 µM (inactive) | 14.3 µM (inactive) | 19.2 µM (inactive) | 13.9 µM (inactive) | 18.2 µM (inactive) | 13.8 µM (inactive) | 15 µM (inactive) | 20.7 µM (inactive) | 17.3 µM (inactive) | 16.6 µM (inactive) | 14.9 µM (inactive) | 15.7 µM (inactive) | 15.1 µM (inactive) | 15.8 µM (inactive) | 44.9 µM (inactive) | 16.5 µM (inactive) | 20.4 µM (inactive) | 39.3 µM (inactive)
CCN(CC)C1C(=O)NC1C#Cc1ccccc1 (stereo not given) | 67.5 µM (inactive) | > 100 µM (inactive) | > 100 µM (inactive) | > 100 µM (inactive) | 69.5 µM (inactive) | 26.4 µM (inactive) | > 100 µM (inactive) | > 100 µM (inactive) | 40.8 µM (inactive) | 71.4 µM (inactive) | 98.4 µM (inactive) | > 100 µM (inactive) | > 100 µM (inactive) | > 100 µM (inactive) | > 100 µM (inactive) | > 100 µM (inactive) | 32 µM (inactive) | > 100 µM (inactive) | > 100 µM (inactive) | 36.6 µM (inactive)
NCCNc1nc(N2CCCC2)c2nc(Cl)c(NCc3ccccc3)nc2n1 | 1.66 µM (inactive) | 1.75 µM (inactive) | 1.67 µM (inactive) | 1.4 µM (inactive) | 2.04 µM (inactive) | 1.75 µM (inactive) | 1.67 µM (inactive) | 1.71 µM (inactive) | 1.69 µM (inactive) | 2.14 µM (inactive) | 2.07 µM (inactive) | 1.77 µM (inactive) | 2.44 µM (inactive) | 1.86 µM (inactive) | 1.69 µM (inactive) | 1.67 µM (inactive) | 1.57 µM (inactive) | 1.79 µM (inactive) | 1.96 µM (inactive) | 1.97 µM (inactive)
N#Cc1cc2c(n(C3OC(CO)C(O)C(O)C3O)c1=S)CCCCCC2 (stereo not given) | > 100 µM (inactive) | > 100 µM (inactive) | > 100 µM (inactive) | > 100 µM (inactive) | > 100 µM (inactive) | > 100 µM (inactive) | > 100 µM (inactive) | > 100 µM (inactive) | > 100 µM (inactive) | > 100 µM (inactive) | > 100 µM (inactive) | > 100 µM (inactive) | > 100 µM (inactive) | > 100 µM (inactive) | > 100 µM (inactive) | > 100 µM (inactive) | > 100 µM (inactive) | > 100 µM (inactive) | > 100 µM (inactive) | > 100 µM (inactive)
